Measured values taken from patent US20050239656A1, “Pyridine compounds or salts thereof and herbicides containing the same” (priority 2002, published 2005).

Columns and labels:
[1] = system: redroot pigweed; experiment: Test Example 2: soil surface treatment, upland pot test; format: in vivo, Amaranthus retroflexus L.; conditions: active ingredient 500 g/ha
In short: (§1)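 In this pre-emergence upland pot test, a small sprayer delivered the diluted compound formulation (1,500 L/ha water) to the soil surface the day after seeding. Plants were then observed, and control was scored from 0 to 100% some 20–28 days after treatment.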

[2] = system: barnyardgrass; experiment: as above; format: in vivo, Echinochloa crus-galli L.; conditions: active ingredient 500 g/ha
In short: as §1

[3] = system: barnyardgrass; experiment: Test Example 3: paddy pot test, application under submerged conditions; format: in vivo, Echinochloa crus-galli L.; conditions: submerged application at 0.5 leaf stage, visually observed 14 days after application, 0 = non-treated, 100 = complete kill
In short: (§2)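 After sowing seeds and planting wapato tubers in flooded paddy soil, an aqueous dilution of the formulated compound was added to the 3–4 cm flood water at early leaf stage. Percent growth control relative to the untreated plot was assessed visually on day 14.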

[4] = system: japanese bulrush; experiment: as above; format: in vivo, Scirpus juncoides; conditions: submerged application at 0.5 leaf stage, visually observed 14 days after application, 0 = non-treated, 100 = complete kill
In short: as §2

[5] = system: crabgrass; experiment: Test Example 2: soil surface treatment, upland pot test; format: in vivo, Digitaria sanguinalis L.; conditions: active ingredient 500 g/ha
In short: as §1

[6] = system: velvetleaf; experiment: as above; format: in vivo, Abutilon theophrasti MEDIC.; conditions: active ingredient 500 g/ha
In short: as §1

[7] = system: corn; experiment: as above; format: in vivo, Zea mays L.; conditions: active ingredient 500 g/ha
In short: as §1

[8] = system: crabgrass; experiment: Test Example 1: foliage treatment, upland pot test; format: in vivo, Digitaria sanguinalis L.; conditions: active ingredient 500 g/ha, observed 18th to 23rd day, 0 = non-treated, 100 = complete kill
[9] = system: green foxtail; experiment: Test Example 2: soil surface treatment, upland pot test; format: in vivo, Setaria viridis L.; conditions: active ingredient 500 g/ha
In short: as §1

[10] = system: rice; experiment: Test Example 1: foliage treatment, upland pot test; format: in vivo, Oryza sativa L.; conditions: crop, active ingredient 500 g/ha, observed 18th to 23rd day, 0 = non-treated, 100 = complete kill
In short: (§3)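 Applied as a post-emergence foliar spray: formulated compound diluted to 500 L/ha with spreader at 0.1% (v/v). Treatment timing—rice at 1.2–2.6, wheat at 1.3–2.4, barnyardgrass at 1.3–2.8, soybean at 0.1–0.4 leaf stage. Scored visually on a 0–100% control scale after 18–23 days.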

[11] = system: prickly sida; experiment: Test Example 1: foliage treatment, upland pot test; format: in vivo, Sida spinosa L.; conditions: active ingredient 500 g/ha, observed 18th to 23rd day, 0 = non-treated, 100 = complete kill
[12] = system: rice; experiment: Test Example 2: soil surface treatment, upland pot test; format: in vivo, Oryza sativa L.; conditions: active ingredient 500 g/ha
In short: as §1

[13] = system: green foxtail; experiment: Test Example 1: foliage treatment, upland pot test; format: in vivo, Setaria viridis L.; conditions: active ingredient 500 g/ha, observed 18th to 23rd day, 0 = non-treated, 100 = complete kill
[14] = system: soybean; experiment: Test Example 1: foliage treatment, upland pot test; format: in vivo, Glycine max Merr.; conditions: crop, active ingredient 500 g/ha, observed 18th to 23rd day, 0 = non-treated, 100 = complete kill
In short: as §3

[15] = system: barnyardgrass; experiment: Test Example 1: foliage treatment, upland pot test; format: in vivo, Echinochloa crus-galli L.; conditions: active ingredient 500 g/ha, observed 18th to 23rd day, 0 = non-treated, 100 = complete kill
In short: as §3

[16] = system: soybean; experiment: Test Example 2: soil surface treatment, upland pot test; format: in vivo, Glycine max Merr.; conditions: active ingredient 500 g/ha
In short: as §1

[17] = system: corn; experiment: Test Example 1: foliage treatment, upland pot test; format: in vivo, Zea mays L.; conditions: crop, active ingredient 500 g/ha, observed 18th to 23rd day, 0 = non-treated, 100 = complete kill
In short: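 In this upland pot foliage test, corn plants at 2.1 to 3.2 leaf stages were sprayed by a small size sprayer. The spray was a conventionally formulated wettable powder or emulsifiable concentrate weighed to a set active ingredient amount, diluted in water at 500 L/ha, plus 0.1% (v/v) agricultural spreader. Visual assessment on days 18 to 23 gave growth controlling degree (%), where 0 equals untreated and 100 means complete kill.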

[18] = system: prickly sida; experiment: Test Example 2: soil surface treatment, upland pot test; format: in vivo, Sida spinosa L.; conditions: active ingredient 500 g/ha
In short: as §1

[19] = system: redroot pigweed; experiment: Test Example 1: foliage treatment, upland pot test; format: in vivo, Amaranthus retroflexus L.; conditions: active ingredient 500 g/ha, observed 18th to 23rd day, 0 = non-treated, 100 = complete kill
[20] = system: japanese ribbon wapato; experiment: Test Example 3: paddy pot test, application under submerged conditions; format: in vivo, Sagittaria pygniaea; conditions: submerged application at primary leaf stage, visually observed 14 days after application, 0 = non-treated, 100 = complete kill
In short: as §2

[21] = system: rice (var. Nihonbare); experiment: Test Example 3: paddy pot test, transplanted rice; format: in vivo, Oryza sativa L.; conditions: applied 4th day after transplantation, visually observed 21st day after application, 0 = non-treated, 100 = complete kill
In short: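 Rice (2-leaf stage) was transplanted 3 cm deep into puddled, leveled paddy soil under 3–4 cm flooding. On day 4 after transplanting, diluted wettable powder or emulsifiable concentrate was pipetted onto the water at a predetermined active-ingredient dose. Growth control (0 = untreated, 100 = complete kill) was scored visually 21 days later.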

[22] = system: velvetleaf; experiment: Test Example 1: foliage treatment, upland pot test; format: in vivo, Abutilon theophrasti MEDIC.; conditions: active ingredient 500 g/ha, observed 18th to 23rd day, 0 = non-treated, 100 = complete kill
[23] = observed day 21, 0 = non-treated, 100 = complete kill

Structure (SMILES)	Growth controlling degree (%) Barnyardgrass ([3]; active ingredient 250 g/ha) [%]	Growth controlling degree (%) Japanese bulrush ([4]; active ingredient 250 g/ha) [%]	Growth controlling degree (%) Crabgrass [8] [%]	Growth controlling degree (%) Rice [10] [%]	Growth controlling degree (%) Prickly sida [11] [%]	Growth controlling degree (%) Green foxtail [13] [%]	Growth controlling degree (%) Soybean [14] [%]	Growth controlling degree (%) Barnyardgrass [15] [%]	Growth controlling degree (%) Corn [17] [%]	Growth controlling degree (%) Redroot pigweed [19] [%]	Growth controlling degree (%) Japanese ribbon wapato ([20]; active ingredient 250 g/ha) [%]	Growth controlling degree (%) Rice ([21]; active ingredient 250 g/ha) [%]	Growth controlling degree (%) Velvetleaf [22] [%]	Growth controlling degree (%) Redroot pigweed ([1]; observed 20th to 28th day) [%]	Growth controlling degree (%) Barnyardgrass ([2]; observed 20th to 28th day) [%]	Growth controlling degree (%) Crabgrass ([5]; observed 20th to 28th day) [%]	Growth controlling degree (%) Velvetleaf ([6]; observed 20th to 28th day) [%]	Growth controlling degree (%) Corn ([7]; observed 20th to 28th day) [%]	Growth controlling degree (%) Green foxtail ([9]; observed 20th to 28th day) [%]	Growth controlling degree (%) Rice ([12]; observed 20th to 28th day) [%]	also measured
CCC(CC)C(c1cnccc1C(F)(F)F)N(C)C(=O)COc1ccccc1 (stereo not drawn) [I-263]	5	90	80	60	90	70	80	80	40	70	20	0	95								Growth controlling degree (%) Redroot pigweed [1, 23]: 70%; Growth controlling degree (%) Barnyardgrass [2, 23]: 10%; Growth controlling degree (%) Crabgrass [5, 23]: 95%; Growth controlling degree (%) Velvetleaf [6, 23]: 40%; Growth controlling degree (%) Corn [7, 23]: 20%; Growth controlling degree (%) Green foxtail [9, 23]: 60%; Growth controlling degree (%) Rice [12, 23]: 40%; Growth controlling degree (%) Soyabean [16, 23]: 10%; Growth controlling degree (%) Prickly sida [18, 23]: 70%
CC(C)C(c1cnccc1C(F)(F)F)N(C)C(=O)Cc1cc(F)ccc1F (stereo not drawn) [I-85]	100	98	90	40	80	85	80	80	60	70	70	0	90	90	100	100	80	10	100	10	Growth controlling degree (%) Soyabean ([16]; observed 20th to 28th day): 40%; Growth controlling degree (%) Prickly sida ([18]; observed 20th to 28th day): 100%
CC(C)C(c1cnccc1C(F)(F)F)N(C)S(=O)(=O)c1ccccc1 (stereo not drawn) [I-117, N-methyl-N-[2-methyl-1-(4-trifluoromethylpyridin-3-yl)propyl]phenylsulfonamide]	95	98	80	20	70	40	60	80	30	50	0	0	80	60	100	95	50	20	100	40	Growth controlling degree (%) Soyabean ([16]; observed 20th to 28th day): 10%; Growth controlling degree (%) Prickly sida ([18]; observed 20th to 28th day): 70%
CC(C)C(c1cnccc1C(F)(F)F)N(C)C(=O)Cc1c(F)cccc1Cl (stereo not drawn) [I-33]	100	85	80	30	70	70	40	20	0	60	90	10	80	80	100	100	90	30	90	10	Growth controlling degree (%) Soyabean ([16]; observed 20th to 28th day): 0%; Growth controlling degree (%) Prickly sida ([18]; observed 20th to 28th day): 80%
CC(C)C(c1cnccc1C(F)(F)F)N(C)C(=O)Cc1ccc(F)c(C(F)(F)F)c1 (stereo not drawn) [I-61]	95	0	80	30	80	90	70	30	30	70	20	10	80	70	20	80	60	10	70	10	Growth controlling degree (%) Soyabean ([16]; observed 20th to 28th day): 20%; Growth controlling degree (%) Prickly sida ([18]; observed 20th to 28th day): 98%
CC(C)C(c1cnccc1C(F)(F)F)N(C)C(=O)COc1ccccc1 (stereo not drawn) [I-229]			80	30	80	70	50	60	10	80			90	98	100	100	50	100	100	50	Growth controlling degree (%) Barnyardgrass ([3]; active ingredient 500 g/ha): 100%; Growth controlling degree (%) Japanese bulrush ([4]; active ingredient 500 g/ha): 95%; Growth controlling degree (%) Soyabean ([16]; observed 20th to 28th day): 10%; Growth controlling degree (%) Prickly sida ([18]; observed 20th to 28th day): 100%; Growth controlling degree (%) Japanese ribbon wapato ([20]; active ingredient 500 g/ha): 90%; Growth controlling degree (%) Rice ([21]; active ingredient 500 g/ha): 0%
